Data taken from patent US10919941B2, “Functional lipid constructs” (KODE BIOTECH LIMITED, priority 2007, dated 2021).
No end group written: not given here.

What was measured:
[1] = test system: TAP1 serum (Taiwan Miltenberger antibody positive sample); assay: Anti-MUT serum (TAP1) reactivity of modified RBCs (saline and AHG); assay type: cell-based, human; design: key: 0 or ‘−’ no agglutination; 0 or ‘−’ no agglutination; 1+ or 3=very weak agglutination; 1+ or 3=very weak agglutination; 2+ or 5=weak agglutination; 2+ or 5=weak agglutination; 3+ or 8=moderate strong agglutination; 3+ or 8=moderate strong agglutination; 4+ or 10/12=strong agglutination; 4+ or 10/12=strong agglutination; 4+ or 10/12=strong agglutination; details: construct 50 μg/ml
Experimental: (§1) The suspensions are either: • 1. incubated for 2 hours at 37° C. before being washed and suspended in a cell medium for serological analysis at a concentration of 0.8 to 3% (Method 1); or • 2. incubated for 3 to 4 hours at room temperature (circa 25° C.) followed by 18 hours at 4° C. before being washed and suspended in a cell medium for serological analysis at a concentration of 0.8 to 3% (Method 2).
(§2) Serological reactions are graded or scored by either of two established systems (0 or ‘−’ no agglutination, 1+ or 3=very weak agglutination, 2+ or 5=weak agglutination, 3+ or 8=moderate strong agglutination, 4+ or 10/12=strong agglutination)

[2] = test system: natural Mi III antibody reactive human serums; assay: Positive serum reactivity of modified RBCs in the field; assay type: cell-based; design: key: 0 or ‘−’ no agglutination; 0 or ‘−’ no agglutination; 1+ or 3=very weak agglutination; 1+ or 3=very weak agglutination; 2+ or 5=weak agglutination; 2+ or 5=weak agglutination; 3+ or 8=moderate strong agglutination; 3+ or 8=moderate strong agglutination; 4+ or 10/12=strong agglutination; 4+ or 10/12=strong agglutination; 4+ or 10/12=strong agglutination; details: 22 at 50, 17 and 24 at 200 μg/ml; 3 h RT then 18 h 4° C.
Experimental: as §1, §2

[3] = test system: Miltenberger Antibody Positive Panel; assay: Reactivity of modified RBCs against the Miltenberger Antibody Positive Panel; assay type: cell-based, human; design: key to score vs panel 15 TAP2 / score vs panel 4 T7202 / score vs panel 8 T5896 / score vs panel 2 T217 / score vs panel 3 T165 / score vs panel 14 TAP1 / score vs panel 10 Mia / score vs panel 11 Mur / score vs panel 12 Gam / score vs panel 6 T6025 / score vs panel 7 T8445 / score vs panel 9 MIII / score vs panel 13 BoxH / reactivity with Panel Serum #7 (T8445) / agglutination score, Panel Serum #7 (T8445): 0 or ‘−’ no agglutination; 0 or ‘−’ no agglutination; 1+ or 3=very weak agglutination; 1+ or 3=very weak agglutination; 2+ or 5=weak agglutination; 2+ or 5=weak agglutination; 3+ or 8=moderate strong agglutination; 3+ or 8=moderate strong agglutination; 4+ or 10/12=strong agglutination; 4+ or 10/12=strong agglutination; 4+ or 10/12=strong agglutination
antibody negative serums = assay: False positive reactions of modified RBCs with antibody negative serums/plasma; assay type: cell-based, human; design: key to Reaction score BioVue AHG, PAC samples 1-46, 49, 50, 52, 53 / Reaction score BioVue AHG, PAC sample 47 / Reaction score BioVue AHG, PAC sample 48 / Reaction score BioVue AHG, PAC sample 51 / agglutination score, T series serum 2 / agglutination score, T series serum 42 / agglutination score, T series serum 63 / agglutination score, T series serum 62 / agglutination score, T series serum 7 / agglutination score, T series serum 20 / agglutination score, T series serum 48 / agglutination score, T series serum 22 / agglutination score, T series serum 39 / agglutination score, T series serum 23 / agglutination score, T series serum 30 / agglutination score, T series serum 4 / agglutination score, T series serum 31 / agglutination score, T series serum 44 / agglutination score, T series serum 61 / agglutination score, T series serum 18 / agglutination score, T series serum 21 / agglutination score, T series serum 28 / agglutination score, T series serum 55 / agglutination score, false positive serum T18 / agglutination score, false positive serum T21 / agglutination score, false positive serum T28 / agglutination score, false positive serum T55 / agglutination score, false positive serum T78 / agglutination score, false positive serum T92: 0 or ‘−’ no agglutination; 0 or ‘−’ no agglutination; 1+ or 3=very weak agglutination; 1+ or 3=very weak agglutination; 2+ or 5=weak agglutination; 2+ or 5=weak agglutination; 3+ or 8=moderate strong agglutination; 3+ or 8=moderate strong agglutination; 4+ or 10/12=strong agglutination; 4+ or 10/12=strong agglutination; 4+ or 10/12=strong agglutination
[4] = cells modified at 50 μg/ml, 2 hour 37° C., BioVue AHG cards
[5] = larger series = 102, cells modified at 50 μg/ml, 2 hour 37° C., BioVue AHG cards

M17: DOPE peptide-lipid construct: Mur peptide TYPAHTANEV, leader c, spacer CMG(2) (TYPAHTANEVC; also: DOPE peptide-lipid construct via leader Cys, spacer CMG(2))
TAP 1 Serum, AHG score [1]: 0
TAP 1 Serum, Saline score [1]: 0
score vs Mi III reactive serum 912485657-9 [2]: 3
score vs Mi III reactive serum 914146821-8 [2]: 10
score vs Mi III reactive serum 922390844-5 [2]: 12
score vs Mi III reactive serum 926190919-0 [2]: 3
score vs Mi III reactive serum 926555294-1 [2]: 0
score vs Mi III reactive serum 927175131-4 [2]: 0
score vs Mi III reactive serum 927299700-1 [2]: 0
score vs Mi III reactive serum 927516053-2 [2]: 0
score vs Mi III reactive serum 927619701-8 [2]: 3
score vs Mi III reactive serum 932360876-4 [2]: 0
score vs Mi III reactive serum 932467774-5 [2]: 0
score vs Mi III reactive serum 932809044-1 [2]: 8
score vs Mi III reactive serum 942223755-1 [2]: 5
score vs Mi III reactive serum 942404708-4 (row interpreted Mur) [2]: 5
score vs Mi III reactive serum 942404708-4 (row interpreted other) [2]: 0
score vs Mi III reactive serum 942421413-0 [2]: 5
score vs Mi III reactive serum 942423002-4 [2]: 0
score vs Mi III reactive serum 942433813-3 [2]: 8
score vs Mi III reactive serum 942433855-3 [2]: 8
score vs Mi III reactive serum 942442720-2 [2]: 5
score vs Mi III reactive serum 942448627-8 [2]: 0
score vs Mi III reactive serum 942753165-4 [2]: 8
score vs Mi III reactive serum 942762589-1 [2]: 0
score vs Mi III reactive serum 9322338631 [2]: 10
score vs Mi III reactive serum 9325490091 [2]: 5
score vs Mi III reactive serum 9327986660 [2]: 3
score vs Mi III reactive serum 9328118428 [2]: 10
score vs Mi III reactive serum 9328154853 [2]: 10
score vs Mi III reactive serum 9328791834 [2]: 3
score vs Mi III reactive serum 9424248012 [2]: 0
score vs Mi III reactive serum 9424292604 [2]: 8
score vs Mi III reactive serum 9424396133 [2]: 0
score vs Mi III reactive serum 9425256505 [2]: 8
score vs Mi III reactive serum 9427455417 [2]: 5
score vs Mi III reactive serum 9427613497 [2]: 0
score vs Mi III reactive serum 9427615156 [2]: 0
score vs Mi III reactive serum S-3 [2]: 3
score vs panel 2 T217 ([3]; Table 9, construct 100 μg/ml): 0
score vs panel 3 T165 ([3]; Table 9, construct 100 μg/ml): 10
score vs panel 4 T7202 ([3]; Table 9, construct 100 μg/ml): 8
score vs panel 6 T6025 ([3]; Table 9, construct 100 μg/ml): 10
score vs panel 7 T8445 ([3]; Table 9, construct 100 μg/ml): 10
score vs panel 8 T5896 ([3]; Table 9, construct 100 μg/ml): 0
score vs panel 9 MIII ([3]; Table 9, construct 100 μg/ml): 0
score vs panel 10 Mia ([3]; Table 9, construct 100 μg/ml): 0
score vs panel 11 Mur ([3]; Table 9, construct 100 μg/ml): 0
score vs panel 12 Gam ([3]; Table 9, construct 100 μg/ml): 0
score vs panel 15 TAP2 ([3]; Table 9, construct 100 μg/ml): 0
agglutination score, Panel Serum #7 (T8445) [3, 4]: 10
reactivity with Panel Serum #7 (T8445) ([3]; construct 50 μg/ml (2 hours, 37° C.)): 10
% positive (antibody negative serums; T series reactives (n = 58), BioVue AHG cards): 33%
agglutination score, T series serum 2 (antibody negative serums; [4]): 10
agglutination score, T series serum 4 (antibody negative serums; [4]): 8
agglutination score, T series serum 7 (antibody negative serums; [4]): 8
agglutination score, T series serum 18 (antibody negative serums; [4]): 12
agglutination score, T series serum 20 (antibody negative serums; [4]): 8
agglutination score, T series serum 21 (antibody negative serums; [4]): 12
agglutination score, T series serum 22 (antibody negative serums; [4]): 8
agglutination score, T series serum 23 (antibody negative serums; [4]): 3
agglutination score, T series serum 28 (antibody negative serums; [4]): 12
agglutination score, T series serum 30 (antibody negative serums; [4]): 3
agglutination score, T series serum 31 (antibody negative serums; [4]): 8
agglutination score, T series serum 39 (antibody negative serums; [4]): 5
agglutination score, T series serum 42 (antibody negative serums; [4]): 10
agglutination score, T series serum 44 (antibody negative serums; [4]): 10
agglutination score, T series serum 48 (antibody negative serums; [4]): 8
agglutination score, T series serum 55 (antibody negative serums; [4]): 12
agglutination score, T series serum 61 (antibody negative serums; [4]): 10
agglutination score, T series serum 62 (antibody negative serums; [4]): 8
agglutination score, T series serum 63 (antibody negative serums; [4]): 10
agglutination score, false positive serum T18 (antibody negative serums; [5]): 12
agglutination score, false positive serum T21 (antibody negative serums; [5]): 12
agglutination score, false positive serum T28 (antibody negative serums; [5]): 12
agglutination score, false positive serum T55 (antibody negative serums; [5]): 12
agglutination score, false positive serum T78 (antibody negative serums; [5]): 12
agglutination score, false positive serum T92 (antibody negative serums; [5]): 12
number of negative serums with score 0 (antibody negative serums; n = 102 negative serum samples): 65
number of negative serums with score 3 (antibody negative serums; n = 102 negative serum samples): 3
number of negative serums with score 8-5 (antibody negative serums; n = 102 negative serum samples): 18
number of negative serums with score 12-10 (antibody negative serums; n = 102 negative serum samples): 17
share of negative serums with score 0 (antibody negative serums; n = 102 negative serum samples): 64%
share of negative serums with score 3 (antibody negative serums; n = 102 negative serum samples): 3%
share of negative serums with score 8-5 (antibody negative serums; n = 102 negative serum samples): 18%
share of negative serums with score 12-10 (antibody negative serums; n = 102 negative serum samples): 17%
